US9357775B2, “Rosin-derived cationic compounds and polymers” (University of South Carolina, priority 2011, dated 2016)

What was measured:
Format in all cases: cell-based
[1] = tested on: different bacterial strains; experiment: Control experiments with residual copper catalysts and solvents; conditions: control for residual catalyst/solvent
Procedure: To further confirm that the antimicrobial activities were not caused by residual copper catalysts and solvents (i.e. methanol), control experiments were carried out using these reagents against different bacterial strains.

[2] = tested on: Gram-positive bacteria; experiment: MIC determination by disk-diffusion method, Gram-positive bacteria
Procedure: (§1) Tests for antimicrobial activities were carried out using rosin-derived quaternary ammonium 1 and their polymer 4 with a number-average molecular weight of 7.5×105 g/mol. The antimicrobial susceptibilities of several Gram-negative bacteria (e.g. Pseudomonas aeruginosa, Escherichia coli, Enterobacter aerogenes, and Klebsiella pneumonia) and Gram-positive bacteria (Staphylococcus aureus and Bacillus cereus) were determined. These strains were purified at laboratory and maintained at −70° C. in a 1:1 mixture of glycerol and dimethylsulfoxide (DMSO). To conduct the assays, a small volume of actively-growing cultures of each bacterial strain is spread on agar plates, and incubated at 28° C. for 24 h to form a ‘bacterial lawn’ covering the plate surface. Then 6 mm (dia) filter discs are added to the surface, and 30 ul samples (containing each compound at several concentrations dissolved in DMSO) are applied to the disc surfaces, and the plates are incubated.
(§2) Considering the potential applications of antimicrobial compounds and polymers as coatings for food packaging, medical implants and devices, and antifouling surfaces, all subsequent MIC determinations were carried out using the disk-diffusion method.

[3] = tested on: Gram-negative bacteria; experiment: MIC determination by disk-diffusion method, Gram-negative bacteria
Procedure: as §1, §2

SMILES | toxicity against bacterial strains [1] | antimicrobial activity (control experiments) [2] | antimicrobial activity (control experiments) [3]
CO [methanol] | did not exhibit significant toxicity | – | –
CC[N+](CC)(CC)CC.[Br-] [TEAB, tetraethylammonium bromide] | – | no activities | no activities
